Here are results for 51 compounds from patent US9663516B2, “Bicyclic-pyrimidinedione compounds” (MyoKardia, Inc., priority 2014, dated 2017).

A value given as a limit tells only on which side of the number the result lay.

The target in this experiment is bovine cardiac myosin (Bos taurus, UniProt Q9BE39). As to the kind of experiment: Myosin inhibition assay (PK/LDH-coupled ATPase, bovine cardiac myofibrils). The class given is biochemical. To be noted: calcium concentration giving 50% activation, pH 6.8, read-out: bcMF pCa_6 IC50. On the procedure: Small molecule agents were assessed for their ability to inhibit the enzymatic activity of bovine cardiac myosin using a biochemical assay that couples the release of ADP (adenosine diphosphate) from cardiac myosin to an enzymatic coupling system consisting of pyruvate kinase and lactate dehydrogenase (PK/LDH) and monitoring the absorbance decrease of NADH (at 340 nm) as a function of time. PK converts ADP to ATP (adenosine triphosphate) by converting PEP (phosphoenolpyruvate) to pyruvate. Pyruvate is then converted to lactate by LDH by converting NADH (nicotinamide adenine dinucleotide) to NAD (oxidized nicotinamide adenine dinucleotide). […] Prior to testing small molecule agents, the bovine myofibrils were assessed for their calcium responsiveness and the calcium concentration that achieves a 50% activation of the myofibril system was chosen as the final condition for assessing the inhibitory activity of the small molecule agents. All enzymatic activity was measured in a buffered solution containing 12 mM PIPES (piperazine-N,N′-bis(2-ethanesulfonic acid), 2 mM magnesium chloride at pH 6.8 (PM12 buffer). Final assay conditions were 1 mg/mL of bovine cardiac myofibrils, 0.4 mM PK/LDH, 50 uM ATP, 0.1 mg/mL BSA (bovine serum albumin), 10 ppm antifoam, 2 mM BME, 0.5 mM NADH, 1.5 mM PEP at the desired free calcium concentration required to achieve 50% activation of the myofibrils.
Chain of bovine cardiac myosin (Q9BE39 whole entry): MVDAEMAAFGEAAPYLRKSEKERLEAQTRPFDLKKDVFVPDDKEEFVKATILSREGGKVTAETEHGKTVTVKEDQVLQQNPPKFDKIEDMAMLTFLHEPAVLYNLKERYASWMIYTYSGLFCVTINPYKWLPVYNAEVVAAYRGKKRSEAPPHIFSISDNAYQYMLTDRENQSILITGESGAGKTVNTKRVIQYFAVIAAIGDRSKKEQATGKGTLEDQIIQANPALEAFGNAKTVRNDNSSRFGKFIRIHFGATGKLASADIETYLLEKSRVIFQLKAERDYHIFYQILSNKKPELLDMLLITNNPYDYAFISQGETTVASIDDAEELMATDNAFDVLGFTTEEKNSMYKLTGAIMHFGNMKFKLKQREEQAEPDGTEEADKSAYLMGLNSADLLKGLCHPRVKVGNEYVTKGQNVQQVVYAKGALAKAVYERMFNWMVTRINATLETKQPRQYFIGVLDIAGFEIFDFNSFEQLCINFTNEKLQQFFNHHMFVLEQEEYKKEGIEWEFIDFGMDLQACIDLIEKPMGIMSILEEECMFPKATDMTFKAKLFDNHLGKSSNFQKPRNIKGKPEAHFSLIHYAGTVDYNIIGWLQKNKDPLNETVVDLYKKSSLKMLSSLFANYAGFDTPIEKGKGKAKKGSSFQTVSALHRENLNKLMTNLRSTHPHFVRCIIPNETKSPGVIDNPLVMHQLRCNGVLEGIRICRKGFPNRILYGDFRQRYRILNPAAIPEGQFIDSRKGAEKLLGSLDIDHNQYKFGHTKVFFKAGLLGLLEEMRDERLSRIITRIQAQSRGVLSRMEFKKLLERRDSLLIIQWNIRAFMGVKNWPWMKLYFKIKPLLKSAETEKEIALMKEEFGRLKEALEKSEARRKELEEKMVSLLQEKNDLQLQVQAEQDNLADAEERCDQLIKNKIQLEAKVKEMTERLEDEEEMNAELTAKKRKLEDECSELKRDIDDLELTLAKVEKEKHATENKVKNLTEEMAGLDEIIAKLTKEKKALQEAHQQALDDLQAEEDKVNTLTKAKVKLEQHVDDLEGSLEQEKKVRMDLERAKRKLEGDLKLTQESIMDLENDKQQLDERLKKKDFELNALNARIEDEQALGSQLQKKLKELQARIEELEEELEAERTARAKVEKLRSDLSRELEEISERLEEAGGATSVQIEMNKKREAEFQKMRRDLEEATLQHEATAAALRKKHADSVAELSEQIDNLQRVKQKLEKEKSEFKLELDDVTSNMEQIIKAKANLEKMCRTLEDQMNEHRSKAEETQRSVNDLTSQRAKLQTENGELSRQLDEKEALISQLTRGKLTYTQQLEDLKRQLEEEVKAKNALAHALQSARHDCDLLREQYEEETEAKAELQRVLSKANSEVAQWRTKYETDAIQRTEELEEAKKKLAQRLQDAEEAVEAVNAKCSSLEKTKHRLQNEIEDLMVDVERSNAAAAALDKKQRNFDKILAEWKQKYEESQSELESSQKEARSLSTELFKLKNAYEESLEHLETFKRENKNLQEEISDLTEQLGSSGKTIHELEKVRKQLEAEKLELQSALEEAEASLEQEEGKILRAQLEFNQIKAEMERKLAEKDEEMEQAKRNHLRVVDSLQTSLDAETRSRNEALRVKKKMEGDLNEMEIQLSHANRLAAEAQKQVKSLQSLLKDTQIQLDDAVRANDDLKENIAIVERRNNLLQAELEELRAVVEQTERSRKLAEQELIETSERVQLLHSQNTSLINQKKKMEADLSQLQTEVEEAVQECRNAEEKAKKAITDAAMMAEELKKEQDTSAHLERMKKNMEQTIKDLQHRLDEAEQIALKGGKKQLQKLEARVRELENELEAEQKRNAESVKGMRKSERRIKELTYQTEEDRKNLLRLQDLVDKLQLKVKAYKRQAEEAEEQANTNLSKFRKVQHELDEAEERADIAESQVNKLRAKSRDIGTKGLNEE
Chain of bovine cardiac myosin (P85100 whole entry partner): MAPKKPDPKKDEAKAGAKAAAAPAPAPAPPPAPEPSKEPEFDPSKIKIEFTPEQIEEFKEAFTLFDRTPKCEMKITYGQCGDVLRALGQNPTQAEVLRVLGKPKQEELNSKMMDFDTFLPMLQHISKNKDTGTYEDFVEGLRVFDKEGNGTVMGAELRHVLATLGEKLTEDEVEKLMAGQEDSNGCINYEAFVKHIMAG
Chain of bovine cardiac myosin (Q3SZE5 whole entry partner): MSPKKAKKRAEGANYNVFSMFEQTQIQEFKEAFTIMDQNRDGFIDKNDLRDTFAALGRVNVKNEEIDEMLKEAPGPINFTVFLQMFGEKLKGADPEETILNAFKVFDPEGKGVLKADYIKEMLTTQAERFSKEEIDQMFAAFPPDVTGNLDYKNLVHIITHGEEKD
A dilution series of compound was created in DMSO such that the final desired concentration of compound would be achieved in a volume of 30 μL with a fixed DMSO concentration of 3.3% (v/v). Typically 1 μL of the dilution series were added to 384 well plate to achieve an 10 point dose response. Following the addition of 14 μL of a solution containing bovine cardiac myofibrils, PK/LDH and a solution of calcium (that achieved 50% activation), the enzymatic reaction was started with the addition of 15 μL of a solution containing ATP, PEP and NADH. The reaction progress was followed in a PerkinElmer Envision plate reader at ambient temperature using clear bottom plates. The plate reader was configured to read absorbance at 340 nm in kinetics mode for 15 minutes. Data were recorded as the slope of the absorbance response to time. The slopes of the absorbance response as a function of time were normalized to slopes on the plate containing DMSO. This normalized rate was then plotted as a function of small molecule concentration and the data was fitted to a four-parameter fit using EXCEL XLfit. The IC50 is the concentration at which fifty percent of the total response is inhibited.
The IC50 is the midpoint of a concentration-inhibition curve. Consider `O=c1[nH]c2c(c(=O)n1C1CCC1)CC[C@H](c1ccccc1)N2` [Compound 28], for which the IC50 was in the range of 1 to 15 µM.
For the compound `CCn1c(=O)[nH]c2c(c1=O)CC[C@H](c1ccc(F)c(Cl)c1)N2` [Compound 13], the IC50 was 1 to 15 µM.
With `Cc1cccc([C@H]2CCc3c([nH]c(=O)n(C4(C)CC4)c3=O)N2)c1` [Compound 124], the IC50 was 1 to 15 µM.
In the case of `C[C@]1(c2cccc(F)c2)CCc2c([nH]c(=O)n(CC(F)(F)F)c2=O)N1` [Compound 137], the IC50 was less than 1 µM.
For `CC(C)n1c(=O)[nH]c2c(c1=O)CC(F)(F)[C@@H](c1ccccc1)N2` [Compound 117, (R)-6,6-Difluoro-3-isopropyl-7-phenyl-5,6,7,8-tetrahydropyrido[2,3-d]pyrimidine-2,4(1H,3H)-dione], the IC50 was more than 15 µM.
Take `COC(=O)N1CCC(n2c(=O)[nH]c3c(c2=O)CC[C@](C)(c2ccc(F)c(F)c2)N3)CC1` [Compound 125]: the IC50 lay within 1 to 15 µM.
Turning to `CC(C)n1c(=O)[nH]c2c(c1=O)CC(F)(F)[C@](C)(c1ccccc1)N2` [Compound 140], the IC50 was in the range of 1 to 15 µM.
In the case of `CCn1c(=O)[nH]c2c(c1=O)CC[C@H](c1cc(F)cc(F)c1)N2` [Compound 25], the IC50 was more than 15 µM.
As for `O=c1[nH]c2c(c(=O)n1C1CCC1)CC[C@H](c1ccc(F)c(F)c1)N2` [Compound 96], the IC50 lay in the range of 1 to 15 µM.
As to `COc1cccc(-n2c(=O)[nH]c3c(c2=O)CC[C@H](C2CCC(F)(F)CC2)N3)n1` [Compound 39], the IC50 lay within 1 to 15 µM.
As to `CC(C)n1c(=O)[nH]c2c(c1=O)CC[C@@](C)(c1ccccc1)N2` [Compound 107], the IC50 is more than 15 µM.
With `CC(C)n1c(=O)[nH]c2c(c1=O)CC[C@H](c1ccc(=O)[nH]c1)N2` [Compound 54], the IC50 was more than 15 µM.
As to `CCn1c(=O)[nH]c2c(c1=O)CC[C@](c1ccccc1)(C1CCC1)N2` [Compound 146], the IC50 was more than 15 µM.
As for `CC(C)n1c(=O)[nH]c2c(c1=O)CC[C@H](c1cccc(Cl)c1)N2` [Compound 12], the IC50 is less than 1 µM.
As to `C[C@]1(c2cccc(F)c2)CCc2c([nH]c(=O)n(C3CCOCC3)c2=O)N1` [Compound 128], the IC50 was less than 1 µM.
Consider `CC(C)n1c(=O)[nH]c2c(c1=O)CC[C@H](CC1CC(F)(F)C1)N2` [Compound 50], for which the IC50 was in the range of 1 to 15 µM.
For the compound `O=c1[nH]c2c(c(=O)n1-c1cc(F)cc(F)c1)CC[C@H](C1CCCC1)N2` [Compound 40], the 50% inhibitory concentration (IC50) fell in the range of 1 to 15 µM.
As to `CCn1c(=O)[nH]c2c(c1=O)CC[C@](CC)(c1ccccc1)N2` [Compound 123], the IC50 was in the range of 1 to 15 µM.
The result for `O=c1[nH]c2c(c(=O)n1-c1cc(F)cc(F)c1)C[C@@H](c1ccccc1)N2` [Compound 79] reads more than 15 µM.
For `CCn1c(=O)[nH]c2c(c1=O)CC[C@](c1ccccc1)(C1CCOCC1)N2` [Compound 143], the IC50 was in the range of 1 to 15 µM.
`CC1(n2c(=O)[nH]c3c(c2=O)CC[C@H](c2ccccc2)N3)CC1` [Compound 56]: the IC50 lay in the range of 1 to 15 µM.
As for `C[C@]1(c2cc(F)ccc2F)CCc2c([nH]c(=O)n(-c3cc(F)cc(F)c3)c2=O)N1` [Compound 135], the IC50 is less than 1 µM.
In the case of `CC(C)n1c(=O)[nH]c2c(c1=O)CCCN2` [Compound 10, 3-Isopropyl-5,6,7,8-tetrahydropyrido[2,3-d]pyrimidine-2,4(1H,3H)-dione], the IC50 was more than 15 µM.
On to `CCn1c(=O)[nH]c2c(c1=O)CC[C@@](c1ccccc1)(C1CCOCC1)N2` [Compound 142], for which the IC50 was less than 1 µM.
The result for `O=c1[nH]c2c(c(=O)n1-c1cc(F)cc(F)c1)CC[C@H](c1ccccc1)N2` [Compound 65] reads 1 to 15 µM.
With `CCn1c(=O)[nH]c2c(c1=O)CC[C@H](c1cccc(F)c1)N2` [Compound 61], the IC50 was in the range of 1 to 15 µM.
In the case of `Cc1ccccc1[C@H]1CCc2c([nH]c(=O)n(C3(C)CC3)c2=O)N1` [Compound 122], the IC50 lay in the range of 1 to 15 µM.
As to `O=c1[nH]c2c(c(=O)n1-c1ccccc1)CC[C@H](c1ccccc1F)N2` [Compound 108], the IC50 was in the range of 1 to 15 µM.
The result for `O=c1[nH]c2c(c(=O)n1-c1ccccc1)CC[C@H](c1ccc(F)cc1)N2` [Compound 3, (R)-7-(4-Fluorophenyl)-3-phenyl-5,6,7,8-tetrahydropyrido[2,3-d]pyrimidine-2,4(1H,3H)-dione] reads 1 to 15 µM; that for `O=c1[nH]c2c(c(=O)n1-c1cc(F)cc(F)c1)CC[C@H](CC1CC(F)(F)C1)N2` [Compound 51], 1 to 15 µM; that for `O=c1[nH]c2c(c(=O)n1CC(F)F)CC[C@H](c1ccc(F)cc1)N2` [Compound 73], 1 to 15 µM.
The result for `O=c1[nH]c2c(c(=O)n1C1CC1)CC[C@H](C1CCC(F)(F)CC1)N2` [Compound 21] reads 1 to 15 µM.
Take `CC(C)Cn1c(=O)[nH]c2c(c1=O)CC[C@H](c1ccc(F)c(F)c1)N2` [Compound 80]: the 50% inhibitory concentration (IC50) is 1 to 15 µM.
For the compound `CCn1c(=O)[nH]c2c(c1=O)CC[C@@H](c1ccc(F)c(F)c1)CN2` [Compound 98], the IC50 is more than 15 µM.
With `CC[C@@H](C)n1c(=O)[nH]c2c(c1=O)CC[C@H](C1CCC(F)(F)CC1)N2` [Compound 78], the IC50 is less than 1 µM.
The result for `Cc1ccccc1[C@H]1CCc2c([nH]c(=O)n(C(C)C)c2=O)N1` [Compound 104] reads 1 to 15 µM; that for `O=c1[nH]c2c(c(=O)n1-c1ccccc1)CC[C@@H](c1ccccc1F)N2` [Compound 109], more than 15 µM.
In the case of `CC1(n2c(=O)[nH]c3c(c2=O)CC[C@H](c2ccccc2F)N3)CC1` [Compound 114], the IC50 lay in the range of 1 to 15 µM.
Turning to `Cc1cccc(-n2c(=O)[nH]c3c(c2=O)CC[C@H](C2CCC(F)(F)CC2)N3)n1` [Compound 38], the IC50 was 1 to 15 µM.
Turning to `CC(C)n1c(=O)[nH]c2c(c1=O)CC[C@H](c1cccc(F)c1F)N2` [Compound 76], the IC50 was 1 to 15 µM.
`CCn1c(=O)[nH]c2c(c1=O)CCC[C@H](c1ccc(F)c(F)c1)N2` [Compound 99]: the IC50 was more than 15 µM.
As to `CC(C)n1c(=O)[nH]c2c(c1=O)C[C@H](C)[C@H](c1ccccc1)N2` [Compound 92], the IC50 was more than 15 µM.
The result for `CCn1c(=O)[nH]c2c(c1=O)C[C@](C)(c1ccccc1)N2` [Compound 144] reads more than 15 µM; that for `COC(=O)N1CCC([C@H]2CCc3c([nH]c(=O)n(C(C)C)c3=O)N2)CC1` [Compound 141], 1 to 15 µM; that for `O=c1[nH]c2c(c(=O)n1-c1ccccn1)CC[C@H](C1CCC(F)(F)CC1)N2` [Compound 45], less than 1 µM.
Turning to `O=c1[nH]c2c(c(=O)n1-c1cc(F)cc(F)c1)CC[C@H](C1CC(F)(F)C1)N2` [Compound 42], the IC50 was more than 15 µM.
Regarding `COc1cccc([C@H]2CCc3c([nH]c(=O)n(C(C)C)c3=O)N2)c1` [Compound 5, (R)-3-Isopropyl-7-(3-methoxyphenyl)-5,6,7,8-tetrahydropyrido[2,3-d]pyrimidine-2,4(1H,3H)-dione], the concentration for half-maximal inhibition (IC50) is 1 to 15 µM.
As for `Cc1cccc([C@@H]2CCc3c([nH]c(=O)n(C(C)C)c3=O)N2)c1` [Compound 103], the IC50 was more than 15 µM.
Consider `CCn1c(=O)[nH]c2c(c1=O)CC[C@H](c1cc(F)ccc1F)N2` [Compound 74], for which the 50% inhibitory concentration (IC50) is 1 to 15 µM.
The result for `O=c1[nH]c2c(c(=O)n1CC(F)(F)F)CC[C@@H](c1ccccc1)N2` [Compound 86] reads more than 15 µM; that for `CC(C)n1c(=O)[nH]c2c(c1=O)CC[C@](C)(c1ccc(F)c(F)c1)N2` [Compound 111], less than 1 µM.
